We go through 16 molecules from patent US6683077B2, “2-Amino-benzoxazinones for the treatment of viral infections” (G.D. Searle & Co., priority 1996, dated 2004).

The subject of one assay is HCMV (strain AD169). The assay is described as follows: HCMV ELISA antiviral assay (viral antigen). It is filed as cell-based, human cytomegalovirus. The following applies: Human betaherpesvirus 5, Fibroblast; HCMV AD169 in human foreskin fibroblasts; value before the slash; unit inferred; read-out: Antiviral Activity Elisa, first value (EC50). An excerpt:
These complimentary assays tested the ability of a compound to inhibit the production of new virus and the toxicity of the compound to she host cells. It was important that both assays be performed simultaneously in order to compare the results directly since, toxicity may indirectly reduce viral yield.
Viral yield was estimated by measuring the amount of a viral antigen produced 4 days post infection with a monoclonal antibody to an abundant “immediate early” viral protein. An enzyme-linked (horseradish peroxidase) secondary antibody specific to the primary (mouse) antibody was urged to measure the amount of viral antigen. Test compounds were diluted to 2-times the desired final concentration in DMEM+5% FBS. One hundred microliters of this solution was placed in each well of a 96-well plate. This was performed once for the antiviral 96-well plate and again for a cytotoxicity plate. Two controls were also included for both plates; a no drug control and a no virus control. Ganciclovir was routinely tested in antiviral and cytotoxicity plates as a reference standard because it has known antiviral activity for HCMV. All cells were prepared by harvesting human foreskin fibroblasts, with trypsin and re-suspending at a concentration of 5×10^5 cells per ml in DMEM. Infected cells were prepared by infecting these with HCMV (strain AD169) at a multiplicity of infection=0.2. One hundred microliters of uninfected cells (5×10^4 cells) were added to the appropriate wells of the cytotoxicity plate. In a similar manner 100 μl of infected cells (5×10^4 cells) were added to the appropriate wells of the antiviral plate. Additionally, uninfected cells not treated with test compound were included as controls on the antiviral plate. Plates were incubated for 96 hours at 37° C. in 5% CO2 atmosphere and processed to measure the amount of viral antigen and toxicity.
The following was performed on the antiviral plate only. Media was removed and cells were fixed with 1:1 acetone:methanol for 15 minutes at −20° C. Fixative was removed and cells were washed once with PBS containing 0.05% Tween20. In order to block nonspecific binding of antibodies, each well was incubated with PBS containing 3% (w/v) bovine serum albumin (BSA) for 1 hour at 22° C. The blocking solution was removed and the cells were washed once with PBS containing 0.05% Tween20 before incubating with 1:100 dilution of primary antibody in PBS containing 3% BSA for 2 hours at 22° C. The primary antibody was a monoclonal antibody (mouse source) specific to the immediate early nuclear antigen of HCMV and was commercially available (Dupont). The 1° antibody solution was removed and the plate was rinsed 5 times with PBS containing 1% (v/v) Triton X-100 (PBST) before incubating with secondary antibody diluted 1:1000 in PBS containing 3% BSA for 2 hours at 22° C. The secondary antibody (goat source) recognized the murine-specific determinants of the 1° antibody and was covalently linked to horseradish peroxidase (Sigma). The plate was rinsed 5 times with PBST and once with deionized water before adding 100 μl TMB substrate solution and incubating 30 minutes at 22° C. The reaction was stopped by adding 100 μL of phosphoric acid and the OD at 450 nm recorded. TMB (3,3′,5,5′ tetramethylbenzidine) was the substrate for the horseradish peroxidase linked to the 2° antibody. It was made from a commercially available kit (Kirkegaard & Perry Laboratories, Inc.). Antiviral activity was calculated by comparing the amount of viral antigen produced in drug treated wells with that produced in wells absent of drug.
On the technique in general: In an ELISA, binding on a coated surface is turned into a signal by an enzyme label.

Assay [1] concerns HCMV engineered virus RC256. The assay is described as follows: microbe, parasite or virus in culture. It is filed as cell-based, human cytomegalovirus. The following applies: Human betaherpesvirus 5, Fibroblast, read-out: Antiviral Activity RC256, first value (EC50).
The target of assay [2] is HCMV protease (assemblin) (Human cytomegalovirus, UniProt P16753). The assay is described as follows: Enzymatic assay for HCMV protease (assemblin) inhibitors. It is filed as biochemical.
The target in assay [3] is T1, Human leukocyte elastase (HLE) (Homo sapiens, UniProt P08246).
T1 construct: gift of R. Senior, Washington University
T1 sequence (P08246 30-267): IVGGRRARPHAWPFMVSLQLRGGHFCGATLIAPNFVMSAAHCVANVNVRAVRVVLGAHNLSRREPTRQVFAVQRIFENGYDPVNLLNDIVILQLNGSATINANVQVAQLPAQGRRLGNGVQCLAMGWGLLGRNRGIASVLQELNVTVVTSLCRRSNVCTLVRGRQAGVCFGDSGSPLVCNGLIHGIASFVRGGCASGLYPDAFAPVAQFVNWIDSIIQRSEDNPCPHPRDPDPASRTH
The assay is described as follows: Human leukocyte elastase assay. It is filed as biochemical. An outline of the steps: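 HLE in 0.2 M Tris, pH 8.0, was preincubated 30 minutes at ambient temperature with compound in DMSO. The reaction was started with methoxysuccinyl-Ala-Ala-Pro-Val-p-nitroanilide (2.5 mM added solution), and absorbance increase at 405 nm was monitored for 10 minutes.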

[4] abbreviates: @ 100 (concentration unit not given).
The mark [5] stands for this setting: @ 10 (concentration unit not given).
[6] abbreviates: @ 1 (concentration unit not given).

HCMV protease (assemblin), sequence (P16753 1-256): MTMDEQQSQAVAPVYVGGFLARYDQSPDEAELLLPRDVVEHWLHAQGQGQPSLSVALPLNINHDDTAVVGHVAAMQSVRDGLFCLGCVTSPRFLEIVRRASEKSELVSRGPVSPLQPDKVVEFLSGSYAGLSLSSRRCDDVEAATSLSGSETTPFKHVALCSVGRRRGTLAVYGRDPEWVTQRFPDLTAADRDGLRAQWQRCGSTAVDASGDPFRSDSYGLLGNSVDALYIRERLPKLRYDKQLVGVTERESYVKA

For orientation: EC50 means the concentration needed to bring the measured effect to its halfway point. Take `Cc1c(NC(=O)OC(C)(C)C)ccc2nc(N[C@@H](C)C(=O)N(C)Cc3ccccc3)oc(=O)c12` [Example 6aa, N-[6-[[(1,1-Dimethylethoxy)carbonyl]amino]-5-methyl-4-oxo-4H-3,1-benzoxazin-2-yl]-L-alanine, N-methyl-N-phenylmethylamide]: the EC50 in the assay on HCMV (strain AD169) came to 75 µM.
Still for that read-out and setting: the result for `COC(=O)[C@H](Cc1cscn1)Nc1nc2ccc(NC(=O)OC(C)(C)C)c(C)c2c(=O)o1` [Example 6e, N-[6-[[(1,1-Dimethylethoxy)carbonyl]amino]-5-methyl-4-oxo-4H-3,1-benzoxazin-2-yl]-L-thiazol-4-yl-alanine, methyl ester] reads 58 µM.
Take `Cc1c(NC(=O)OC(C)(C)C)ccc2nc(N[C@@H](C)C(=O)N3CCCC3)oc(=O)c12` [Example 6g, N-[6-[[(1,1-Dimethylethoxy)carbonyl]amino]-5-methyl-4-oxo-4H-3,1-benzoxazin-2-yl]-L-alanine, pyrrolidineamiae]: in the assay on HCMV (strain AD169), the EC50 amounted to 100 µM.
With `Cc1c(CNS(=O)(=O)c2ccccc2)ccc2nc(N[C@@H](Cc3ccccc3)C(=O)N(C)Cc3ccccc3)oc(=O)c12` [Example 13e, N-Methyl-αS-[[5-methyl-4-oxo-6-[[(phenylsulfonyl)amino]methyl]-4H-3,1-benzoxazin-2-yl]amino]-N-(phenylmethyl)benzenepropanamide], the EC50 in assay [1] is 14 µM. Also, the “Assemblin Protease, % @ concentration” value in assay [2] (setting [4]) was 11% @ 100.
For orientation: IC50 means the point on the concentration scale where inhibition reaches its midpoint. High values mean lower potency, low ones higher potency. Take `COc1ccc(C[C@H](Nc2nc3ccc(CNC(=O)Oc4ccccc4)c(C)c3c(=O)o2)C(=O)N(C)Cc2ccccc2)cc1` [Example 9j, Phenyl[[2-[[1S-[(4-methoxyphenyl)methyl]-2-[methyl(phenylmethyl)amino]-2-oxcethyl]amino]-5-methyl-4-oxo-4H-3,1-benzoxazin-6-yl]methyl]carbamate]: in assay [1], the EC50 came to 20 µM. For the same molecule, half-maximal inhibition in assay [2] (IC50) was put at 0.4 µM.
As for `CCOC(=O)NCc1cc(Br)c2nc(N[C@@H](Cc3ccccc3)C(=O)N(C)Cc3ccccc3)oc(=O)c2c1C` [Example 15b, Ethyl[[8-bromo-5-methyl-2-[[2-[methyl(phenylmethyl)amino]-2-oxo-1S-(phenylmethyl)ethyl]amino]-4-oxo-4H-3,1-benzoxazin-6-yl]methyl]carbamate], the EC50 in assay [1] stood at 16 µM. Besides, the “Assemblin Protease, % @ concentration” value in assay [2] (setting [5]) is on record as 39% @ 10.
Turning to `Cc1c(CNC(=O)Oc2ccccc2)ccc2nc(N[C@@H](Cc3ccccc3)C(=O)N(C)Cc3ccccc3)oc(=O)c12` [Example 9ee, Phenyl[[5-methyl-2-[[2-[methyl(phenylmethyl)amino]-2-oxo-1S-(phenylmethyl)ethyl]amino]-4-oxo-4H-3,1-benzoxazin-6-yl]methyl]carbamate], the “HLE, % @ concentration” value in assay [3] (setting [5]) worked out at 47% @ 10. The 50% effective concentration (EC50) in assay [1] turned out to be 15 µM. The IC50 in assay [2] turned out to be 0.6 µM.
For `COc1ccc(C[C@H](Nc2nc3ccc(CNC(=O)OC(C)(C)C)c(C)c3c(=O)o2)C(=O)N(C)c2ccc(Cl)cc2)cc1` [Example 7r, 1,1-Dimethylethyl[[2-[[2-[(4-chlorophenyl)methylamino]-1S-[(4-methoxyphenyl)methyl]-2-oxoethyl]amino]-5-methyl-4-oxo-4H-3,1-benzoxazin-6-yl]methyl]carbamate], in assay [3] (setting [6]), the “HLE, % @ concentration” value turned out to be 44% @ 1. Also, the EC50 in assay [1] is 7 µM. Besides, the “Assemblin Protease, % @ concentration” value in assay [2] (setting [6]) is 52% @ 1.
As to `COc1ccc(C[C@H](Nc2nc3ccc(NC(=O)OCC(C)C)c(C)c3c(=O)o2)C(=O)N(C)Cc2ccccc2)cc1` [Example 11s, 2-Methylpropyl[2-[[1S-[(4-methoxyphenyl)methyl]-2-[methyl(phenylmethyl)amino]-2-oxoethyl]amino]-5-methyl-4H-3,1-benzoxazin-6-yl]carbamate], the EC50 in assay [1] worked out at 17 µM. Besides, the “Assemblin Protease, % @ concentration” value in assay [2] (setting [5]) worked out at 58% @ 10.
Regarding `CCN(Cc1ccccc1)C(=O)[C@H](Cc1ccc(OC)cc1)Nc1nc2ccc(CNC(=O)Oc3ccccc3)c(C)c2c(=O)o1` [Example 9q, Phenyl[[2-[[2-[ethyl(phenylmethyl)amino-1S-,(4-methoxyphenyl)methyl]-2-oxoethyl]amino]-5-methyl-4-oxo-3,1-benzoxazin-6-yl]methyl]carbamate], the “HLE, % @ concentration” value in assay [3] (@ 5 (concentration unit not given)) is on record as 48% @ 5. For the same molecule, in assay [1], the EC50 came to 18 µM. This molecule also came in with an IC50 in assay [2] of 1 µM.
For `COc1ccc(C[C@H](Nc2nc3ccc(NC(=O)OC(C)(C)C)c(C)c3c(=O)o2)C(=O)N(C)Cc2ccccc2)cc1` [Example 6dd, 1,1-Dimethylethyl[2-[[1S-[(4-methoxyphenyl)methyl]-2-[methyl(phenylmethyl)amino]-2-oxoethyl]amino]-5-methyl-4-oxo-4H-3,1-benzoxazin-6-yl]carbamate], the “HLE, % @ concentration” value in assay [3] (setting [5]) turned out to be 42% @ 10. The EC50 in assay [1] came out at 18 µM.
Consider `CCN(Cc1ccccc1)C(=O)[C@H](Cc1ccc(OC)cc1)Nc1nc2ccc(CNC(=O)OC(C)(C)C)c(C)c2c(=O)o1` [Example 7o, 1,1-Dimethylethyl[[2-[[2-[ethyl(phenylmethyl)amino]-1S-[(4-methoxyphenyl)methyl]-2-oxoethyl]amino]-5-methyl-4-oxo-4H-3,1-benzoxazin-6-yl]methyl]carbamate], for which, in assay [3] (@ 12.5 (concentration unit not given)), the “HLE, % @ concentration” value is listed as 42% @ 12.5. The EC50 in assay [1] was 24 µM.
Turning to `Cc1c(NC(=O)OC(C)(C)C)ccc2nc(N[C@@H](Cc3ccc(OCCN4CCCC4)cc3)C(=O)N(C)Cc3ccccc3)oc(=O)c12` [Example 6ff, 1,1-Dimethylethyl[5-methyl-2-[[2-[methyl(phenylmethyl)amino]-2-oxo-1S-[[4-[2-(1-pyrrolidinyl)ethoxy]phenyl]methyl]ethyl]amino]-4-oxo-4H-3,1-benzoxazin-6-yl]carbamate], in assay [3] (setting [4]), the “HLE, % @ concentration” value was determined as 75% @ 100. Also, the EC50 in assay [1] stood at 50 µM.
For the molecule `COc1ccc(C[C@H](Nc2nc3ccc(NC(=O)OCc4ccccc4)c(C)c3c(=O)o2)C(=O)N(C)Cc2ccccc2)cc1` [Example 11t, Phenylmethyl[2-[[1S-[(4-methoxyphenyl)methyl]-2-[methyl(phenylmethyl)amino]-2-oxoethyl]amino]-5-methyl-4H-3,1-benzoxazin-6-yl]carbamate], in assay [1], the EC50 was 35 µM. The “Assemblin Protease, % @ concentration” value in assay [2] (setting [5]) was determined as 38% @ 10.
For `COc1ccc(C[C@H](Nc2nc3ccc(CNC(=O)OC(C)(C)C)c(C)c3c(=O)o2)C(=O)N2CCCC2)cc1` [Example 7g, 1,1-Dimethylethyl[[2-[[1S-[(4-methoxyphenyl)methyl]-2-oxo-2-(1-pyrrolidinyl)ethyl]amino]-5-methyl-4-oxo-4H-3,1-benzoxazin-6-yl]methyl]carbamate], in assay [3] (setting [5]), the “HLE, % @ concentration” value is 39% @ 10. Further, in assay [1], the 50% effective concentration (EC50) was found to be 20 µM.
As to `COc1ccc(C[C@H](Nc2nc3ccc(NC(=O)c4ccccn4)c(C)c3c(=O)o2)C(=O)N(C)Cc2ccccc2)cc1` [Example 11p, N-[2-[[1S-[(4-Methoxyphenyl)methyl]-2-[-methyl(phenylmethyl)amino]-2-oxoethyl]amino]-5-methyl-4-oxo-4H-3,1-benzoxazin-6-yl]pyridine-2-carboxamide], the “HLE, % @ concentration” value in assay [3] (setting [5]) turned out to be 40% @ 10. The EC50 in assay [1] was 8.5 µM.
